In test [1] the target is T1, Recombinant STAT3 protein (STAT3(G127-I722)) (Homo sapiens, UniProt P40763).
T1 construct: Recombinant STAT3 protein (STAT3(G127-I722))
Kind of test: STAT3 Fluorescence Polarization (FP) Assay. Conditions: STAT3(G127-I722) 25 nM, probe 5-FAM-GpYLPQTV-NH2 2 nM, 45-minute incubation. The format is binding. The method in brief:
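STAT3(G127-I722), 25 nM, was mixed with 2 nM 5-FAM-GpYLPQTV-NH2 probe in HEPES pH 7.4 buffer with 1% DMSO and serially diluted compound. FP (mP) was read after 45 min at room temperature. IC50 came from nonlinear regression.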

Test [2] addresses T2, Recombinant STAT6 protein (STAT6(W123-T658)) (Homo sapiens, UniProt P42226).
T2 construct: Recombinant STAT6 protein (STAT6(W123-T658))
T2 sequence (P42226 123-658): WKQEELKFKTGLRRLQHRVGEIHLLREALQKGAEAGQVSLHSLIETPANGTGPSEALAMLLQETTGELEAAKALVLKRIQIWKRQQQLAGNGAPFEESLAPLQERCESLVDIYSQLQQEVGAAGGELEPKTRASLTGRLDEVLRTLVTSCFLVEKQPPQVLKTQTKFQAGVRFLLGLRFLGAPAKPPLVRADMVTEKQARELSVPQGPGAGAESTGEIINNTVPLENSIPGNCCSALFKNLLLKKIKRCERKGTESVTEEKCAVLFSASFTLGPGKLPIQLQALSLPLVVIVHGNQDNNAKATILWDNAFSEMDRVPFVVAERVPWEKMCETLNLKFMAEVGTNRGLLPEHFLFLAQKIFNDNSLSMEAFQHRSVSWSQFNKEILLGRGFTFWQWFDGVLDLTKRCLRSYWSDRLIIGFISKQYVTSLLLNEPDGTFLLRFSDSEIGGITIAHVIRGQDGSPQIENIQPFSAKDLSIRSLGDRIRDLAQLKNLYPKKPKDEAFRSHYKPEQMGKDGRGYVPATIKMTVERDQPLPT
As to the kind of experiment: STAT6 Fluorescence Polarization (FP) Assay. The format is binding. Particulars: STAT6(W123-T658) 250 nM, probe 5-FAM-ApYKPFQDLI-NH2 2 nM, 45-minute incubation. The method in brief:
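Displacement of a fluorescent phosphotyrosine peptide (5-FAM-ApYKPFQDLI-NH2, 2 nM) from STAT6(W123-T658) (250 nM), 1% DMSO, pH 7.4 HEPES buffer. After 45 min at room temperature, polarization (mP) was plotted versus log compound concentration and fitted by nonlinear regression to give IC50.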

T1 sequence (P40763 127-722): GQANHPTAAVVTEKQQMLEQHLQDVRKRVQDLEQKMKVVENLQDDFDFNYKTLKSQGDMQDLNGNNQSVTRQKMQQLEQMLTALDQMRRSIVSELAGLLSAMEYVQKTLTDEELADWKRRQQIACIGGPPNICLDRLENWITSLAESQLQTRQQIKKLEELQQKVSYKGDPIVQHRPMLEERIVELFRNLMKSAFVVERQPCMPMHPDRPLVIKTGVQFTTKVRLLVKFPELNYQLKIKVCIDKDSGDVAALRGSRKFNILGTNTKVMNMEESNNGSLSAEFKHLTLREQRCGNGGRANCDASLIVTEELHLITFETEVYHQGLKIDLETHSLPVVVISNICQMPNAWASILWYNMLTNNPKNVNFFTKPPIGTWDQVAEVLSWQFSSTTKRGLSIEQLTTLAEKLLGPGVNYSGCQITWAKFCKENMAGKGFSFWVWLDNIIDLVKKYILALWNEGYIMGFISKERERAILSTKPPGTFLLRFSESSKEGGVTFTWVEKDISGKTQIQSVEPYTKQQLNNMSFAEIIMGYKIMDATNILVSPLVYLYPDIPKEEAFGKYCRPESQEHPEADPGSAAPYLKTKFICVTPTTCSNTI

As to `CC(=O)N1CC[C@H]2CC[C@@H](C(=O)Nc3ccc(-c4ccccc4)cc3)N2C(=O)[C@@H](NC(=O)c2cc3c(F)c(C(F)(F)P(=O)(O)O)ccc3s2)C1` [Compound 48, ((2-(((5S,8S,10aR)-8-([1,1′-biphenyl]-4-ylcarbamoyl)-3-acetyl-6-oxodecahydropyrrolo[1,2-a][1,5]diazocin-5-yl)carbamoyl)-4-fluorobeno[b]thiophen-5-yl)difluoromethyl)phosphonic acid], the half-inhibitory concentration (IC50) in test [1] was 100 to 1000 nM; in test [2], 300 to 3000 nM.
For `CC(=O)N1CC[C@H]2CC[C@@H](C(=O)N(C)c3ccc4oncc4c3)N2C(=O)[C@@H](NC(=O)c2cc3cc(C(F)(F)P(=O)(O)O)ccc3s2)C1` [Compound 49, ((2-(((5S,8S,10aR)-3-acetyl-8-(benzo[d]isoxazol-5-yl(methyl)carbamoyl)-6-oxodecahydropyrrolo[1,2-a][1,5]diazocin-5-yl)carbamoyl)benzo[b]thiophen-5-yl)difluoromethyl)phosphonic acid], in that order: 1000 to 10000 nM and 3000 to 30000 nM.
The like results for `CC(=O)N1CC[C@H]2CC[C@@H](C(=O)N(C)c3ccccc3)N2C(=O)[C@@H](NC(=O)/C=C(\C)c2cccc(C(F)(F)P(=O)(O)O)c2)C1` [Compound 50, ((3-((E)-4-(((5S,8S,10aR)-3-acetyl-8-(methyl(phenyl)carbamoyl)-6-oxodecahydropyrrolo[1,2-a][1,5]diazocin-5-yl)amino)-4-oxobut-2-en-2-yl)phenyl)difluoromethyl)phosphonic acid] were, in that order, above 10000 nM and 3000 to 30000 nM.
The like results for `CC(=O)N1CC[C@H]2CC[C@@H](C(=O)N(C)c3ccccc3)N2C(=O)[C@@H](NC(=O)/C=C/c2cccc(C(F)(F)P(=O)(O)O)c2)C1` [Compound 51, ((3-((E)-3-(((5S,8S,10aR)-3-acetyl-8-(methyl(phenyl)carbamoyl)-6-oxodecahydropyrrolo[1,2-a][1,5]diazocin-5-yl)amino)-3-oxoprop-1-en-1-yl)phenyl)difluoromethyl)phosphonic acid] were, in that order, above 10000 nM and 3000 to 30000 nM.
In the case of `CC(=O)N1CC[C@H]2CC[C@@H](C(=O)N(C)c3ccc(-c4ccccc4)cc3)N2C(=O)[C@@H](NC(=O)c2cc3cc(C(F)(F)P(=O)(O)O)ccc3[nH]2)C1` [Compound 53, ((2-(((5S,8S,10aR)-8-([1,1′-biphenyl]-4-yl(methyl)carbamoyl)-3-acetyl-6-oxodecahydropyrrolo[1,2-a][1,5]diazocin-5-yl)carbamoyl)-1H-indol-5-yl)difluoromethyl)phosphonic acid], the values for the 50% inhibitory concentration (IC50) in test [1] and in test [2] were 1000 to 10000 nM and 300 to 3000 nM, respectively.
As to `CC(=O)N1CC[C@H]2CC[C@@H](C(=O)N(C)Cc3ccccc3)N2C(=O)[C@@H](NC(=O)c2cc3cc(C(F)(F)P(=O)(O)O)ccc3[nH]2)C1` [Compound 54, ((2-(((5S,8S,10aR)-3-acetyl-8-(benzyl(methyl)carbamoyl)-6-oxodecahydropyrrolo[1,2-a][1,5]diazocin-5-yl)carbamoyl)-1H-indol-5-yl)difluoromethyl)phosphonic acid], the values for the half-maximal inhibitory concentration (IC50) in test [1] and in test [2] were 1000 to 10000 nM and 300 to 3000 nM, respectively.
Regarding `CC(=O)N1CC[C@H]2CC[C@@H](C(=O)N(c3ccccc3)c3ccccc3)N2C(=O)[C@@H](NC(=O)c2cc3cc(C(F)(F)P(=O)(O)O)ccc3[nH]2)C1` [Compound 55, ((2-(((5S,8S,10aR)-3-acetyl-8-(diphenylcarbamoyl)-6-oxodecahydropyrrolo[1,2-a][1,5]diazocin-5-yl)carbamoyl)-1H-indol-5-yl)difluoromethyl)phosphonic acid], the results for the IC50 in test [1] and in test [2] were 1000 to 10000 nM and 300 to 3000 nM, respectively.
The like results for `CC(=O)N1CC[C@H]2CC[C@@H](C(=O)N(Cc3ccccc3)c3ccccc3)N2C(=O)[C@@H](NC(=O)c2cc3cc(C(F)(F)P(=O)(O)O)ccc3[nH]2)C1` [Compound 56, ((2-(((5S,8S,10aR)-3-acetyl-8-(benzyl(phenyl)carbamoyl)-6-oxodecahydropyrrolo[1,2-a][1,5]diazocin-5-yl)carbamoyl)-1H-indol-5-yl)difluoromethyl)phosphonic acid] were, in that order, 1000 to 10000 nM and 300 to 3000 nM.
In the case of `CC(=O)N1CC[C@H]2CC[C@@H](C(=O)N3CCCc4ccccc43)N2C(=O)[C@@H](NC(=O)c2cc3cc(C(F)(F)P(=O)(O)O)ccc3[nH]2)C1` [Compound 57, ((2-(((5S,8S,10aR)-3-acetyl-6-oxo-8-(1,2,3,4-tetrahydroquinoline-1-carbonyl)decahydropyrrolo[1,2-a][1,5]diazocin-5-yl)carbamoyl)-1H-indol-5-yl)difluoromethyl)phosphonic acid], the figures for the half-maximal inhibitory concentration (IC50) in test [1] and in test [2] were 1000 to 10000 nM and 300 to 3000 nM, respectively.
As to `CC(=O)N1CC[C@H]2CC[C@@H](C(=O)Nc3ccc(-c4ccccc4)cc3)N2C(=O)[C@@H](NC(=O)c2cc3cc(C(F)(F)P(=O)(O)O)ccc3[nH]2)C1` [Compound 58, ((2-(((5S,8S,10aR)-8-([1,1′-biphenyl]-4-ylcarbamoyl)-3-acetyl-6-oxodecahydropyrrolo[1,2-a][1,5]diazocin-5-yl)carbamoyl)-1H-indol-5-yl)difluoromethyl)phosphonic acid], the values for the half-maximal inhibitory concentration (IC50) in test [1] and in test [2] were 100 to 1000 nM and 300 to 3000 nM, respectively.
With `CC(=O)N1CC[C@H]2CC[C@@H](C(=O)N3CC(C#N)C4(C3)C(=O)Nc3ccccc34)N2C(=O)[C@@H](NC(=O)c2cc3cc(C(F)(F)P(=O)(O)O)ccc3s2)C1` (stereo partly drawn) [Compound 61, ((2-(((5S,8S,10aR)-3-acetyl-8-(4′-cyano-2-oxospiro[indoline-3,3′-pyrrolidine]-1′-carbonyl)-6-oxodecahydropyrrolo[1,2-a][1,5]diazocin-5-yl)carbamoyl)benzo[b]thiophen-5-yl)difluoromethyl)phosphonic acid], the IC50 in test [1] was 100 to 1000 nM; in test [2] it was 300 to 3000 nM.
The like results for `CC(=O)N1CC[C@H]2CC[C@@H](C(=O)N3CCN(Cc4ccccc4)C(C#N)C3)N2C(=O)[C@@H](NC(=O)c2cc3cc(C(F)(F)P(=O)(O)O)ccc3s2)C1` (stereo partly drawn) [Compound 62, ((2-(((5S,8S,10aR)-3-acetyl-8-(4-benzyl-3-cyanopiperazine-1-carbonyl)-6-oxodecahydropyrrolo[1,2-a][1,5]diazocin-5-yl)carbamoyl)benzo[b]thiophen-5-yl)difluoromethyl)phosphonic acid] were, in that order, 1000 to 10000 nM and 300 to 3000 nM.
Regarding `CC(=O)N1CC[C@H]2CC[C@@H](C(=O)N3CCN(C4CC4)C(C#N)C3)N2C(=O)[C@@H](NC(=O)c2cc3cc(C(F)(F)P(=O)(O)O)ccc3s2)C1` (stereo partly drawn) [Compound 63, ((2-(((5S,8S,10aR)-3-acetyl-8-(3-cyano-4-cyclopropylpiperazine-1-carbonyl)-6-oxodecahydropyrrolo[1,2-a][1,5]diazocin-5-yl)carbamoyl)benzo[b]thiophen-5-yl)difluoromethyl)phosphonic acid], the values for the IC50 in test [1] and in test [2] were 1000 to 10000 nM and 300 to 3000 nM, respectively.
Consider `CC(=O)N1CC[C@H]2CC[C@@H](C(=O)N3CC(C#N)C4(CCC4)C3)N2C(=O)[C@@H](NC(=O)c2cc3cc(C(F)(F)P(=O)(O)O)ccc3s2)C1` (stereo partly drawn) [Compound 64, ((2-(((5S,8S,10aR)-3-acetyl-8-(8-cyano-6-azaspiro[3.4]octane-6-carbonyl)-6-oxodecahydropyrrolo[1,2-a][1,5]diazocin-5-yl)carbamoyl)benzo[b]thiophen-5-yl)difluoromethyl)phosphonic acid], for which the IC50 in test [1] is 1000 to 10000 nM; in test [2] it was 300 to 3000 nM.
For `CC(=O)N1CC[C@H]2CC[C@@H](C(=O)Nc3cc(C)c4[nH]ncc4c3)N2C(=O)[C@@H](NC(=O)c2cc3cc(C(F)(F)P(=O)(O)O)ccc3s2)C1` [Compound 67, ((2-(((5S,8S,10aR)-3-acetyl-8-((7-methyl-1H-indazol-5-yl)carbamoyl)-6-oxodecahydropyrrolo[1,2-a][1,5]diazocin-5-yl)carbamoyl)benzo[b]thiophen-5-yl)difluoromethyl)phosphonic acid], in that order: 1000 to 10000 nM and 300 to 3000 nM.
`CC(=O)N1CC[C@H]2CC[C@@H](C(=O)Nc3ccc4onc(C)c4c3)N2C(=O)[C@@H](NC(=O)c2cc3cc(C(F)(F)P(=O)(O)O)ccc3s2)C1` [Compound 68, ((2-(((5S,8S,10aR)-3-acetyl-8-((3-methylbenzo[d]isoxazol-5-yl)carbamoyl)-6-oxodecahydropyrrolo[1,2-a][1,5]diazocin-5-yl)carbamoyl)benzo[b]thiophen-5-yl)difluoromethyl)phosphonic acid]: the IC50 in test [1] lay within 100 to 1000 nM; in test [2] it was 300 to 3000 nM.

Source of the values: patent US20250179103A1, “6-OXODECAHYDROPYRROLO[1,2-A][1,5]DIAZOCINE AND 6-OXODECAHYDRO-4H-PYRROLO[2,1-D][1,5]THIAZOCINE DERIVATIVES AS STAT3 AND STAT6 MODULATORS FOR THE TREATMENT OF CANCER AND INFLAMMATORY CONDITIONS” (Recludix Pharma, Inc., priority 2022, published 2025).
